The values that follow are results of earlier work, collected in patent US20190091218A1 (priority 2016, published 2019).

For series [1], the system named is histamine induced wheal and flare.
The target in a further series is H1 receptor (Homo sapiens, UniProt P35367). The settings on record: acidic pH.
Test in series [2]: not given
The source holds these as a separate data set.

For series [3] the following is noted: standard 10 mg oral dose.

Where two headings read alike, the source gives them in different places.

Sequence of H1 receptor (P35367 whole entry): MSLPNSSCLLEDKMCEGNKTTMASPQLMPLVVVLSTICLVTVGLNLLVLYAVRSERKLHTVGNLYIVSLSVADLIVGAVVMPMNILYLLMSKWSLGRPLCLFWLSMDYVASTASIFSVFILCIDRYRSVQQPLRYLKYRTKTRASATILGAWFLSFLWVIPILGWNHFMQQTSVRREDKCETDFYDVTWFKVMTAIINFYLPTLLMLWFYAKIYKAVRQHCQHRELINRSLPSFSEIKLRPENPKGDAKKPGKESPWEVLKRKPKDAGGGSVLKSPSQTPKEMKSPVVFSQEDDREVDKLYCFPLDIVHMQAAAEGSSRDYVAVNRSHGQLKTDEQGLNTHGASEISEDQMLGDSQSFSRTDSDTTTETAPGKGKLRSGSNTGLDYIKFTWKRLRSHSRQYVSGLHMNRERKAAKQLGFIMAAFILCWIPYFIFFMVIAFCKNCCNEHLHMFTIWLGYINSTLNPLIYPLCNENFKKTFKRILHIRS

For the compound `O=C(O)COCCN1CCN([C@H](c2ccccc2)c2ccc(Cl)cc2)CC1` [levocetirizine], the “time to steady state level” value (in vivo) is 40 h. Further, the peak concentration is 308 ng/mL (repeated 5 mg once daily oral dose) and 270 ng/mL (single 5 mg oral dose). Also, the “potency among modern generation antihistamines” value in series [1] (histamine induced wheal and flare data) is reported as “most potent of the five modern generation antihistamines”. For the same compound, in series [1] (levocetirizine 5 mg per day vs fexofenadine 180 mg per day), the effectiveness versus fexofenadine entry was “more effective than fexofenadine”. Also, on H1 receptor, the “receptor affinity over first generation mepyramine” value is 5 ×. For the same compound, the “levels of HRV-induced increases in ICAM-1” value in the series on human rhinovirus (HRV) (added before, after, or at the time of the HRV infection) is reported as “reduced”. For the same compound, the “HRV-induced ICAM-1, cytokine expression, and viral replication” value in the series with human rhinovirus (HRV) (airway epithelial cells from nose and lung) is recorded as “inhibit”. The “dose that can be safely administered” value in series [2] (studies in humans) is listed as “up to 30 mg/day”.
`CC(C)(O)c1ccccc1CC[C@@H](SCC1(CC(=O)O)CC1)c1cccc(/C=C/c2ccc3ccc(Cl)cc3n2)c1` [montelukast]: the “mean AUC” value in series [3] is 2689 ng/h/mL. The “dose administered without clinically relevant side effects” value in series [2] (adult patients, 22 weeks) is given as “up to 200 mg/day”; in series [2] (short-term studies, approximately one week) it was “up to 900 mg/day”.
